Laboratory results published in patent publication US9555022B2, “Substituted triazolopyridines” (Bayer Intellectual Property GmbH, priority 2010, dated 2017).
pIC50: −log10 of the molar value.

These compounds were tested against human full length recombinant Mps-1 kinase (Homo sapiens (Human), UniProt P33981) (assay: Mps-1 Kinase Assay (TR-FRET)). Conditions: 10 μM ATP, 1 μM biotinylated peptide substrate, 60 min at 22° C., read-out: Mps-1 Inhibition, IC50 in M.
Assay type: biochemical
In short: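 Next, Eu-labelled anti-phospho(Ser/Thr) antibody and SA-XLent bind for 1 h at 22° C. Finally, energy transfer quantifies phosphorylated product.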

Chain of human full length recombinant Mps-1 kinase (P33981 whole entry): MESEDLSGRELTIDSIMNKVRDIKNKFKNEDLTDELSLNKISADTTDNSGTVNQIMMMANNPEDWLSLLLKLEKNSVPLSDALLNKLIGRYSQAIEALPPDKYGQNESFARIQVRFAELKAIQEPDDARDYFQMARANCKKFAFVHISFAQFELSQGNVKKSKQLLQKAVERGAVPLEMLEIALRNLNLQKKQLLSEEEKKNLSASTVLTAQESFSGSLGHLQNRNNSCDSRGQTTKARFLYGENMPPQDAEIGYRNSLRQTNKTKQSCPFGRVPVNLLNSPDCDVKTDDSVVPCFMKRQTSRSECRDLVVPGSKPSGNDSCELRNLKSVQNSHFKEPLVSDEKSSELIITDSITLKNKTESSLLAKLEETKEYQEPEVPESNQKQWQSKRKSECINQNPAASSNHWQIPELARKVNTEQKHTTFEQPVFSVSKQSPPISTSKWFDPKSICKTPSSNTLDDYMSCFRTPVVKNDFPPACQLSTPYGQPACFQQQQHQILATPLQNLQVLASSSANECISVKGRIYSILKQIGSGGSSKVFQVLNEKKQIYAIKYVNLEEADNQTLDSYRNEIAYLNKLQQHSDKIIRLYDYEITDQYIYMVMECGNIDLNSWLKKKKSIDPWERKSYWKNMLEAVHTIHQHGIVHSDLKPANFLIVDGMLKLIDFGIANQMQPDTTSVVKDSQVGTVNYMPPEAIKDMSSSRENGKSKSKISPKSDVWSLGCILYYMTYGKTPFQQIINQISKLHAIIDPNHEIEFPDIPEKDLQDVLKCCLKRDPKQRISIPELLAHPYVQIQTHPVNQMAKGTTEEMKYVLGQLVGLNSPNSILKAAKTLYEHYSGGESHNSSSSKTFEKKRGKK

pIC50	SMILES
≥ 9.00	COc1cc(C(=O)N2CCC(O)CC2)ccc1Nc1nc2ccc(-c3ccc(NC(=O)Cc4ccc(F)cc4)cc3)cn2n1 [Example 02.20, 2-(4-fluorophenyl)-N-{4-[2-({4-[(4-hydroxypiperidin-1-yl)carbonyl]-2-methoxyphenyl}amino)[,2]triazolo[1,5-a]pyridin-6-yl]phenyl}acetamide]
≥ 9.00	COc1cc(C(=O)N2CCC(O)CC2)ccc1Nc1nc2ccc(-c3ccc(C(=O)NCc4ccc(F)cc4)cc3)cn2n1 [Example 04.10, N-(4-fluorobenzyl)-4-[2-({4-[(4-hydroxypiperidin-1-yl)carbonyl]-2-methoxyphenyl}amino)[,2]triazolo[1,5-a]pyridin-6-yl]benzamide]
≥ 9.00	O=C(NCc1ccc(F)cc1)c1ccc(-c2ccc3nc(Nc4ccc(C(=O)N5CC6(COC6)C5)cc4F)nn3c2)cc1 [Example 04.20, N-(4-fluorobenzyl)-4-(2-{[2-fluoro-4-(2-oxa-6-azaspiro[3.3]hept-6-ylcarbonyl)phenyl]amino}[,2]triazolo[1,5-a]pyridin-6-yl)benzamide]
≥ 9.00	Cc1cc(C(=O)N2CC3(COC3)C2)ccc1Nc1nc2ccc(-c3ccc(C(=O)NCc4ccc(F)cc4)cc3)cn2n1 [Example 04.28, N-(4-fluorobenzyl)-4-(2-{[2-methyl-4-(2-oxa-6-azaspiro[3.3]hept-6-ylcarbonyl)phenyl]amino}[,2]triazolo[1,5-a]pyridin-6-yl)benzamide]
≥ 9.00	COc1cc(C(=O)N2CC(F)C2)ccc1Nc1nc2ccc(-c3ccc(C(=O)NCc4ccc(F)cc4)cc3)cn2n1 [Example 04.35, 4-[2-({4-[(3-fluoroazetidin-1-yl)carbonyl]-2-methoxyphenyl}amino)[,2]triazolo[1,5-a]pyridin-6-yl]-N-(4-fluorobenzyl)benzamide]
≥ 9.00	Cc1cc(C2=NCCO2)ccc1Nc1nc2ccc(-c3ccc(NC(=O)Cc4ccc(F)cc4)cc3)cn2n1 [Example 02.15, N-[4-(2-{[4-(4,5-dihydro-1,3-oxazol-2-yl)-2-methylphenyl]amino}[,2]triazolo[1,5-a]pyridin-6-yl)phenyl]-2-(4-fluorophenyl)acetamide]
≥ 9.00	O=C(NCC1CC1)c1ccc(-c2ccc3nc(Nc4ccc(C(=O)N5CCOCC5)cc4OCC(F)(F)F)nn3c2)cc1 [Example 03.06, N-(cyclopropylmethyl)-4-(2-{[4-(morpholin-4-ylcarbonyl)-2-(2,2,2-trifluoroethoxy)phenyl]amino}[,2]-triazolo[1,5-a]pyridin-6-yl)benzamide]
≥ 9.00	COc1cc(C(=O)N2CCOCC2)ccc1Nc1nc2ccc(-c3ccc(C(=O)NCc4ccc(Cl)cc4)cc3)cn2n1 [Example 05.01, N-(4-chlorobenzyl)-4-(2-{[2-methoxy-4-(morpholin-4-ylcarbonyl)phenyl]amino}[,2]-triazolo[1,5-a]pyridin-6-yl)benzamide]
≥ 9.00	O=C(NCc1ccc(F)cc1)c1ccc(-c2ccc3nc(Nc4ccc(C(=O)N5CC6(COC6)C5)cc4OCC(F)(F)F)nn3c2)cc1 [Example 04.15, N-(4-fluorobenzyl)-4-(2-{[4-(2-oxa-6-azaspiro[3.3]hept-6-ylcarbonyl)-2-(2,2,2-trifluoroethoxy)phenyl]amino}[,2]-triazolo[1,5-a]pyridin-6-yl)benzamide]
≥ 9.00	COc1cc(C(=O)N2C[C@@H]3C[C@H]2CO3)ccc1Nc1nc2ccc(-c3ccc(C(=O)NCc4ccc(F)cc4)cc3)cn2n1 [Example 04.06, N-(4-fluorobenzyl)-4-[2-({2-methoxy-4-[(1S,4S)-2-oxa-5-azabicyclo[2.2.1]hept-5-ylcarbonyl]phenyl}amino)[,2]triazolo[1,5-a]pyridin-6-yl]benzamide]
≥ 9.00	COc1cc(C2=NCCO2)ccc1Nc1nc2ccc(-c3ccc(NC(=O)Cc4ccc(F)cc4)cc3)cn2n1 [Example 02.14, N-[4-(2-{[4-(4,5-dihydro-1,3-oxazol-2-yl)-2-methoxyphenyl]amino}[,2]-triazolo[1,5-a]pyridin-6-yl)phenyl]-2-(4-fluorophenyl)acetamide]
≥ 9.00	Cc1nc(N2CCOCC2)ccc1Nc1nc2ccc(-c3ccc(NC(=O)Cc4ccc(F)cc4)cc3)cn2n1 [Example 02.42, 2-(4-fluorophenyl)-N-[4-(2-{[2-methyl-6-(morpholin-4-yl)pyridin-3-yl]amino}[,2]-triazolo[1,5-a]pyridin-6-yl)phenyl]acetamide]
≥ 9.00	O=C(Cc1ccc(F)cc1)Nc1ccc(-c2ccc3nc(Nc4ccc(C(=O)N5CC6(COC6)C5)cc4OC(F)(F)F)nn3c2)cc1 [Example 02.40, 2-(4-fluorophenyl)-N-[4-(2-{[4-(2-oxa-6-azaspiro[3.3]hept-6-ylcarbonyl)-2-(trifluoromethoxy)phenyl]amino}[,2]triazolo[1,5-a]pyridin-6-yl)phenyl]acetamide]
≥ 9.00	COc1cc(N2CCN(C)CC2)ccc1Nc1nc2ccc(-c3ccc(NC(=O)Cc4ccc(F)cc4)cc3)cn2n1 [Example 02.28, 2-(4-fluorophenyl)-N-[4-(2-{[2-methoxy-4-(4-methylpiperazin-1-yl)phenyl]amino}[,2]-triazolo[1,5-a]pyridin-6-yl)phenyl]acetamide]
≥ 9.00	COc1cc(C(=O)N2CCC2)ccc1Nc1nc2ccc(-c3ccc(NC(=O)Cc4ccc(F)cc4)cc3)cn2n1 [Example 02.22, N-[4-(2-{[4-(azetidin-1-ylcarbonyl)-2-methoxyphenyl]amino}[,2]-triazolo[1,5-a]pyridin-6-yl)phenyl]-2-(4-fluorophenyl)acetamide]
≥ 9.00	COc1cc(C(=O)N2CCOCC2)ccc1Nc1nc2ccc(-c3ccc(C(=O)NCc4ccc(F)cc4)c(C)c3)cn2n1 [Example 07.01, N-(4-fluorobenzyl)-4-(2-{[2-methoxy-4-(morpholin-4-ylcarbonyl)phenyl]amino}[,2]-triazolo[1,5-a]pyridin-6-yl)-2-methylbenzamide]
≥ 9.00	O=C(NCc1ccc(F)cc1)c1ccc(-c2ccc3nc(Nc4ccc(C(=O)N5CCOCC5)cc4OCC(F)F)nn3c2)cc1 [Example 04.22, 4-(2-{[2-(2,2-difluoroethoxy)-4-(morpholin-4-ylcarbonyl)phenyl]amino}[,2]-triazolo[1,5-a]pyridin-6-yl)-N-(4-fluorobenzyl)benzamide]
≥ 9.00	CCOc1cc(C(=O)N2CCN(C(=O)OC(C)(C)C)CC2)ccc1Nc1nc2ccc(-c3ccc(NC(=O)Cc4ccc(F)cc4)cc3)cn2n1 [Example 02.05, tert-butyl 4-(3-ethoxy-4-{[6-(4-{[(4-fluorophenyl)acetyl]amino}phenyl)[,2]triazolo[1,5-a]pyridin-2-yl]amino}benzoyl)piperazine-1-carboxylate]
≥ 9.00	CCOc1cc(C(=O)N2CCNCC2)ccc1Nc1nc2ccc(-c3ccc(NC(=O)Cc4ccc(F)cc4)cc3)cn2n1 [Example 02.06, N-[4-(2-{[2-ethoxy-4-(piperazin-1-ylcarbonyl)phenyl]amino}[,2]-triazolo[1,5-a]pyridin-6-yl)phenyl]-2-(4-fluorophenyl)acetamide]
8.96	COc1cc(N2CCOC2=O)ccc1Nc1nc2ccc(-c3ccc(C(=O)NCc4ccc(F)cc4)c(C)c3)cn2n1 [Example 07.02, N-(4-fluorobenzyl)-4-(2-{[2-methoxy-4-(2-oxo-1,3-oxazolidin-3-yl)phenyl]amino}[,2]-triazolo[1,5-a]pyridin-6-yl)-2-methylbenzamide]
≥ 9.00	COc1cc(S(=O)(=O)N2CCOCC2)ccc1Nc1nc2ccc(-c3ccc(NC(=O)Cc4ccc(F)cc4)cc3)cn2n1 [Example 02.37, 2-(4-fluorophenyl)-N-[4-(2-{[2-methoxy-4-(morpholin-4-ylsulfonyl)phenyl]amino}[,2]-triazolo[1,5-a]pyridin-6-yl)phenyl]acetamide]
